Measured values as given in article PMC10794144, “A novel antibiotic class targeting the lipopolysaccharide transporter” (Nature, 2024).

Columns and labels:
GSH adduct = type: in vitro ADME
A. baumannii [1] = test: Immunocompetent mouse septicaemia infection model; type: in vivo
Procedure: Septicaemia was induced in CD-1 immunocompetent male mice by an intraperitoneal inoculation of a bacterial suspension of the tested A. baumannii isolate at a challenge of approximately 1–2 log[CFU] above the determined median lethal dose (resulting in 10^5 to 10^7 CFU per mouse). […] Mouse survival was followed over 6–7 days. GraphPad Prism 8 was used for graphical presentation of the data. Septicaemia studies with mutant derivative isolates obtained in resistance studies were performed as described above, using a bacterial challenge as determined for the parental isolate.

A. baumannii [2] = test: Neutropaenic mouse thigh infection model; type: in vivo; conditions: A. baumannii ACC01085, neutropenic mice, 24 h, summary table, same as average Log CFU/Thigh
Procedure: An intramuscular inoculation of a bacterial suspension of approximately 10^6 CFU per thigh was used to induce the infection. Treatment started 2 h after infection. […] In the pneumonia model, an intratracheal inoculation of approximately 10^7 CFU per lung was used to induce the infection. Treatment started 2 h after infection. […] Standard of care antibiotic was tested at a single dose in both infection models. GraphPad Prism 8 was used for graphical presentation and to analyse data.

5HT1A = target: T1, 5HT1A (Homo sapiens, UniProt P08908); test: Off-target screening (CEREP); type: binding; conditions: read-out: percent inhibition
T1 construct: purchased Eurofins CEREP SA
T1 sequence (P08908 1-422): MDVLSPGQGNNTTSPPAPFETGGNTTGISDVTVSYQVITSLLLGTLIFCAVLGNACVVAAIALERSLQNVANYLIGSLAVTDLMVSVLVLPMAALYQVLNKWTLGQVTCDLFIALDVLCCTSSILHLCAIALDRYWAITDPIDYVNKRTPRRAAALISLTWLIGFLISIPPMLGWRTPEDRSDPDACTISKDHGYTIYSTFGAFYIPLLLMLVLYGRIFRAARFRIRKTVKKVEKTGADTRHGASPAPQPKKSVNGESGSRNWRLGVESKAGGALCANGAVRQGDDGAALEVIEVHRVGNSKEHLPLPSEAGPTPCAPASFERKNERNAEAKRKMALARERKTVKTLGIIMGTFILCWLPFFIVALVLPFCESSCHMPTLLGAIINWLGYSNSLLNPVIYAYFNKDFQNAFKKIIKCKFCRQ
In short: (§1)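 Test compound was screened at 10 µM as a single-point measurement in duplicate. Values are percent inhibition of radioligand signal for binding assays or of control enzymatic activity for enzyme assays.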

Cannabinoid receptor CB1 = target: T2, Cannabinoid receptor CB1 (Homo sapiens, UniProt P21554); test: Off-target screening (CEREP); type: binding; conditions: read-out: percent inhibition
T2 construct: purchased Eurofins CEREP SA
In short: as §1

[3] = target: T3, Cholecystokinin 1 receptor (Homo sapiens, UniProt P32238); test: Off-target screening (CEREP); type: binding; conditions: read-out: percent inhibition
T3 construct: purchased Eurofins CEREP SA
T3 sequence (P32238 1-428): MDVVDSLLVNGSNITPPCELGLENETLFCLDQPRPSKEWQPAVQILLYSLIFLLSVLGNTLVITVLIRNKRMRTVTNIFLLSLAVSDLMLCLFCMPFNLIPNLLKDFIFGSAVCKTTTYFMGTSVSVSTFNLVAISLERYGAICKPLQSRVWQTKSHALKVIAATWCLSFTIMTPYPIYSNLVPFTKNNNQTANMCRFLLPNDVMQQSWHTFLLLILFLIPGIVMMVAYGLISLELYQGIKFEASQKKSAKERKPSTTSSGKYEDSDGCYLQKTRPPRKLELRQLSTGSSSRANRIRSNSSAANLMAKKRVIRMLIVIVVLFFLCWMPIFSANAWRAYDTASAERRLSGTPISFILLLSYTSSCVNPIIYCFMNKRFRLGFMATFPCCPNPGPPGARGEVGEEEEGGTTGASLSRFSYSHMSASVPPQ
In short: as §1

Histamine H2 receptor = target: T4, Histamine H2 receptor (Homo sapiens, UniProt P25021); test: Off-target screening (CEREP); type: binding; conditions: read-out: percent inhibition
T4 construct: purchased Eurofins CEREP SA
In short: as §1

PPAR gamma = target: T5, PPAR gamma (Homo sapiens, UniProt P37231); test: Off-target screening (CEREP); type: binding; conditions: read-out: percent inhibition
T5 construct: purchased Eurofins CEREP SA
T5 sequence (P37231 1-505): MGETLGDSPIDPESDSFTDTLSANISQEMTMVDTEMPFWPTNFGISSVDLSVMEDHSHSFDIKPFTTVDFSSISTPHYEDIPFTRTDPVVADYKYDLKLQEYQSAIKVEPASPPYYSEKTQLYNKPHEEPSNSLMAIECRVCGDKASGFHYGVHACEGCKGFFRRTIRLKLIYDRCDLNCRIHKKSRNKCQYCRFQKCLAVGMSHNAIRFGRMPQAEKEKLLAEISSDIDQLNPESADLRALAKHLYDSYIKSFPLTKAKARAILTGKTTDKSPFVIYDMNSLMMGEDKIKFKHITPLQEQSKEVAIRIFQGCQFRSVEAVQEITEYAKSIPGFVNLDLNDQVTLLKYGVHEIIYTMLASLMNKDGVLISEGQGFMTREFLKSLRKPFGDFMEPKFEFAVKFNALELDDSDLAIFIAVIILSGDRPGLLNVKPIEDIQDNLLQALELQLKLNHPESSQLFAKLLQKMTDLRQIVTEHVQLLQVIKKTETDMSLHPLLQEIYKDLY
In short: as §1

Prostaglandin F receptor = target: T6, Prostaglandin F receptor (Homo sapiens, UniProt P43088); test: Off-target screening (CEREP); type: binding; conditions: read-out: percent inhibition
T6 construct: purchased Eurofins CEREP SA
In short: as §1

[4] = target: T7, Angiotensin converting enzyme (Homo sapiens, UniProt P12821); test: Off-target screening (CEREP); type: biochemical; conditions: read-out: percent inhibition
T7 construct: purchased Eurofins CEREP SA
Procedure: Supplementary Table 1 │ Off-target activity screening f or MCP compou nds […]
The assays given in the table above were conducted at Eurofins CEREP S A (Celle-Lévescault, France) and were run as single point measurements in duplicates in the presence of 10 µ M of the test compound and reported as percent inhibition of the radioligand signal or control enzymatic activity. n.d., not

T7 sequence (P12821 30-1306): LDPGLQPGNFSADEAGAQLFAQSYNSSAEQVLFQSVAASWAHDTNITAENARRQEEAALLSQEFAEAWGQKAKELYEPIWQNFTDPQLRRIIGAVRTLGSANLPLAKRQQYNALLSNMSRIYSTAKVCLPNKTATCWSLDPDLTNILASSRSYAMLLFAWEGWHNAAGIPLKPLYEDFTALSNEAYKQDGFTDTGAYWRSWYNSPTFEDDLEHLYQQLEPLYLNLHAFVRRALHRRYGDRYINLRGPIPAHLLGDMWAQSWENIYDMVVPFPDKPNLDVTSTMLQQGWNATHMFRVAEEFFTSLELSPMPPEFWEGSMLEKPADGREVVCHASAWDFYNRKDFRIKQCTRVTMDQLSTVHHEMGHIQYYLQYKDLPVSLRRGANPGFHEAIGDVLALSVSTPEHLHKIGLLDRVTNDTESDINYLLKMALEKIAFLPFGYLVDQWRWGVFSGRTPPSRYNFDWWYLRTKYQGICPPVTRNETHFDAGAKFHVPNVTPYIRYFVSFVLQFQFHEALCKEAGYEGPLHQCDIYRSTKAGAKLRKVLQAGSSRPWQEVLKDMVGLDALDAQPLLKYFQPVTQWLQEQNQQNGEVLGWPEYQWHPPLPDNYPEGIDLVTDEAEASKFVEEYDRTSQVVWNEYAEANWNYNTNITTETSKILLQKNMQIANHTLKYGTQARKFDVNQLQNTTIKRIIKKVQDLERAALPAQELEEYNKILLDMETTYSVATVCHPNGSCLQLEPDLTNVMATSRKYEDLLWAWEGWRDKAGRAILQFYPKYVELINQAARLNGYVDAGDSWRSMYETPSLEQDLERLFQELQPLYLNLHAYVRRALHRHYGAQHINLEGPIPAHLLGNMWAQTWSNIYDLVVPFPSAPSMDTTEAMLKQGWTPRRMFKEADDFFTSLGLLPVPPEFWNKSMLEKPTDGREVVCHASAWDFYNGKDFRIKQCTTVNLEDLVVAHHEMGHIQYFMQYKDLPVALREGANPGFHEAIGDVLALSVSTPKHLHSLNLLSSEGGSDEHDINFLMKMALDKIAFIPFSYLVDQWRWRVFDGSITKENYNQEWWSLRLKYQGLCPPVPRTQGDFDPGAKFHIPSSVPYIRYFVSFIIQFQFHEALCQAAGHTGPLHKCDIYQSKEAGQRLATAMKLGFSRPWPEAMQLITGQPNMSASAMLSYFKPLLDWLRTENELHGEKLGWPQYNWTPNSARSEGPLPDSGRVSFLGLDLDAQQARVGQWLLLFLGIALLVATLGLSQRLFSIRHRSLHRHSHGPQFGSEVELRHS
T6 sequence (P43088 whole entry): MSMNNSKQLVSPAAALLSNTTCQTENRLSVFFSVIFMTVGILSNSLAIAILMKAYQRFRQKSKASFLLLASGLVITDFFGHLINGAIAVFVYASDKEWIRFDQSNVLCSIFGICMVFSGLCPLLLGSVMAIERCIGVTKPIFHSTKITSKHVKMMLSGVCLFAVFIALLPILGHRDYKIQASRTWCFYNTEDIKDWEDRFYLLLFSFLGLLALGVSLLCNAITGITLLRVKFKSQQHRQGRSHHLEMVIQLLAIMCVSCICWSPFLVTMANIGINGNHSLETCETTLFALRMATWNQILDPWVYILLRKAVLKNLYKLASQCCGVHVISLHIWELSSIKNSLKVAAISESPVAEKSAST
T2 sequence (P21554 whole entry): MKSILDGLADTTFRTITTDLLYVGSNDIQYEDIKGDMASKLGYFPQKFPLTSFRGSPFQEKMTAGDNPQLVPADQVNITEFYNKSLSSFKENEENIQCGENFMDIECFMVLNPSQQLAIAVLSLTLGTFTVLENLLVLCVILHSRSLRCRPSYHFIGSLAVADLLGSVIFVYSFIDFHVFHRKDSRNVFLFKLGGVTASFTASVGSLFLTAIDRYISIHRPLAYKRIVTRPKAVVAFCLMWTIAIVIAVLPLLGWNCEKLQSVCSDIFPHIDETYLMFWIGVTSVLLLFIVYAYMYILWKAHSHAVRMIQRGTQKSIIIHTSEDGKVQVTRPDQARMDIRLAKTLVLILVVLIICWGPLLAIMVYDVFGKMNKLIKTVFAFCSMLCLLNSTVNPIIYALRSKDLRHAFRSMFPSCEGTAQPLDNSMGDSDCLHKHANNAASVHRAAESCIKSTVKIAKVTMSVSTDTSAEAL
T4 sequence (P25021 whole entry): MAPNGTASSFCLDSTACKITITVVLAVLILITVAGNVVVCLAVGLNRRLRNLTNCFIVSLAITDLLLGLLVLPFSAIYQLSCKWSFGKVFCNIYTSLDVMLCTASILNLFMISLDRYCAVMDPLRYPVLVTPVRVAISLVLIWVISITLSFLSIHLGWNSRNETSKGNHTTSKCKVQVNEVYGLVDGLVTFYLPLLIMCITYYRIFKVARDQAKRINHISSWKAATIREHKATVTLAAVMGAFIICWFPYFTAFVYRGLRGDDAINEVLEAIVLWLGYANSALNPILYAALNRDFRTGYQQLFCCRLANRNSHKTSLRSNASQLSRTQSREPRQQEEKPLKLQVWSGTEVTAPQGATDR

CN1C(=O)[C@H](CCCCN)NC(=O)[C@H](CCCN)NCc2cccnc2Sc2cccc(-c3ccc(C(=O)O)cc3)c2CNC(=O)[C@@H]1Cc1c[nH]c2ccccc12 [zosurabalpin]
Ames (Ames): Negative
GSH adduct (GSH adduct): Clean
Survival rate from sepsis, treated (A. baumannii [1]; ACC00445 parental, 2 x 30mg/kg s.c., vehicle 0): 0/100%
Survivors, individual mouse status (A. baumannii [1]; ACC00445 septicaemia, 0.3 mg/kg s.c. at 1 and 5 h, Day 1): 1
Survival rate from sepsis, treated (A. baumannii [1]; ACC00535 parental, 2 x 30mg/kg, vehicle 0): 0/100%
Survival rate from sepsis, treated (A. baumannii [1]; ROB08706 parental, 2 x 30mg/kg, vehicle 0): 0/100%
Survival rate from sepsis, treated (A. baumannii [1]; ROB08708 parental, 2 x 30mg/kg, vehicle 0): 0/100%
Survival rate from sepsis, treated (A. baumannii [1]; ROB08961 (LpxM NS), 2 x 30mg/kg, vehicle 100): 100/100%
Survival rate from sepsis, treated (A. baumannii [1]; ROB08979 (LptF R322L), 2 x 30mg/kg, vehicle 25): 25/50%
Survival rate from sepsis, treated (A. baumannii [1]; ROB08982 (lpxM ISAba1), 2 x 30mg/kg, vehicle 87.5): 87.5/100%
Survival rate from sepsis, treated (A. baumannii [1]; ROB08985 (LpxM NS), 2 x 30mg/kg, vehicle 100): 100/100%
Survival rate from sepsis, treated (A. baumannii [1]; ROB08997 (LptF I323K), 2 x 30mg/kg, vehicle 0): 0/0%
Survival rate from sepsis, treated (A. baumannii [1]; ROB08998 (AdeR A91V), 2 x 30mg/kg, vehicle 12.5): 12.5/100%
Survival rate from sepsis, treated (A. baumannii [1]; ROB09000 (lpxM ISAba1), 2 x 30mg/kg, vehicle 100): 100/100%
Survival rate from sepsis, treated (A. baumannii [1]; ROB21530 (LptF W271S), 2 x 30mg/kg, vehicle 25): 25/37.5%
Survival rate from sepsis, treated (A. baumannii [1]; ROB21531 (LptG G40D), 2 x 30mg/kg, vehicle 0): 0/87.5%
Survival rate from sepsis, treated (A. baumannii [1]; ROB21532 (LptF R322C), 2 x 30mg/kg, vehicle 50): 50/50%
Survival rate from sepsis, treated (A. baumannii [1]; ROB21533 (LptF I317L), 2 x 30mg/kg, vehicle 0): 0/0%
Survival rate from sepsis, treated (A. baumannii [1]; ROB23370 (adeS ISAba1), 2 x 30mg/kg, vehicle 0): 0/75%
Survival rate from sepsis, treated (A. baumannii [1]; ROB23371 (AdeS R152K), 2 x 30mg/kg, vehicle 0): 0/100%
Survival rate from sepsis, treated (A. baumannii [1]; ROB23373 (AdeS G318S), 2 x 30mg/kg, vehicle 0): 0/100%
Survival rate from sepsis, treated (A. baumannii [1]; ROB23377 (AdeS R108S), 2 x 30mg/kg, vehicle 0): 0/100%
Survival rate from sepsis, treated (A. baumannii [1]; ROB23380 (adeS ISAba1), 2 x 30mg/kg, vehicle 0): 0/100%
Bacterial Load (average) (A. baumannii [2]; 6 mg/kg/day q6h): 8.75
Bacterial Load (average) (A. baumannii [2]; 20 mg/kg/day q6h): 7.85
Bacterial Load (average) (A. baumannii [2]; 60 mg/kg/day q6h): 7.41
Bacterial Load (average) (A. baumannii [2]; 100 mg/kg/day q6h): 6.21
Bacterial Load (average) (A. baumannii [2]; 160 mg/kg/day q6h): 4.10
Bacterial Load (average) (A. baumannii [2]; 240 mg/kg/day q6h): 3.37
Bacterial Load (average) (A. baumannii [2]; 360 mg/kg/day q6h): 3.09
inhibition at 10 µM (5HT1A): 0%
inhibition at 10 µM (Cannabinoid receptor CB1): -20%
inhibition at 10 µM [3]: -1%
inhibition at 10 µM (Histamine H2 receptor): -2%
inhibition at 10 µM (PPAR gamma): -4%
inhibition at 10 µM (Prostaglandin F receptor): 5%
inhibition at 10 µM [4]: -16%
